A word on the inhibition: it is the drop in the measured response relative to a control, in per cent.

What all share (conditions): Compound concentration 10 µM
Assay [1] concerns the target T1, D(4) dopamine receptor (Homo sapiens) (UniProt P21917).
T1 sequence (whole entry): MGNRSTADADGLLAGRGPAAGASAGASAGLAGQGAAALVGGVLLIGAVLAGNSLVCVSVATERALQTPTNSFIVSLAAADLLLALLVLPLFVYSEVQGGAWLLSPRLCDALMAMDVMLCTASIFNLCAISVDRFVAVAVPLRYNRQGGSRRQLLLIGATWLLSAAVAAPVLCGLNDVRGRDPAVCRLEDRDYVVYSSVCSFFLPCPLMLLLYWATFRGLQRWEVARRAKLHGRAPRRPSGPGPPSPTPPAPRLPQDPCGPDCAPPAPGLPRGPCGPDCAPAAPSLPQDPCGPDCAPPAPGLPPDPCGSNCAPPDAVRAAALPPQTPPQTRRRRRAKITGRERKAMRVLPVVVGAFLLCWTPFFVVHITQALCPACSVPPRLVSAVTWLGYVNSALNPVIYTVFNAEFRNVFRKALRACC
Description: PDSP Primary Binding target: DRD4 - Compounds are tested at 10 uM concentration, plate are incubated at room temperature in the dark for 90 minutes. Reaction are stopped by vacuum filtration onto 0.3% polyethyleneimine soaked filter mats using Filtermate harvester. Scintilation cocktail is then melted onto microwave-dried filters on a hot plate and the radio activity is counted in Microbia counter.

The target in assay [2] is D(3) dopamine receptor (Homo sapiens) (UniProt P35462).
Description: PDSP Primary Binding target: DRD3 - Compounds are tested at 10 uM concentration, plate are incubated at room temperature in the dark for 90 minutes. Reaction are stopped by vacuum filtration onto 0.3% polyethyleneimine soaked filter mats using Filtermate harvester. Scintilation cocktail is then melted onto microwave-dried filters on a hot plate and the radio activity is counted in Microbia counter.
Assay [3] addresses T2, 5-hydroxytryptamine receptor 1A (Homo sapiens) (UniProt P08908).
T2 sequence (whole entry): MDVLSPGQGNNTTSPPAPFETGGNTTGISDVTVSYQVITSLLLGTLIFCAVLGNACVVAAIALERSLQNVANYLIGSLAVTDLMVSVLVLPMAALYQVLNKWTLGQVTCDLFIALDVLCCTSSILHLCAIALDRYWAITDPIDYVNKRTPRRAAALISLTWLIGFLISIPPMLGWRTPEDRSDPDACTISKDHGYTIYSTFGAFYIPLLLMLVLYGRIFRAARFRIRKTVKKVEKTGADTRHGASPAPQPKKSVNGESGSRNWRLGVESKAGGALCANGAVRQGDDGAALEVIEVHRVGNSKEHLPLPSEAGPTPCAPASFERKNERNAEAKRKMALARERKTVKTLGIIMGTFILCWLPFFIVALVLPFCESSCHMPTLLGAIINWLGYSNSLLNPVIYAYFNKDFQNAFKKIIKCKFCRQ
Description: PDSP Primary Binding target: HTR1A - Compounds are tested at 10 uM concentration, plate are incubated at room temperature in the dark for 90 minutes. Reaction are stopped by vacuum filtration onto 0.3% polyethyleneimine soaked filter mats using Filtermate harvester. Scintilation cocktail is then melted onto microwave-dried filters on a hot plate and the radio activity is counted in Microbia counter.

In assay [4] the target is T3, Alpha-2B adrenergic receptor (Homo sapiens) (UniProt P18089).
T3 sequence (whole entry): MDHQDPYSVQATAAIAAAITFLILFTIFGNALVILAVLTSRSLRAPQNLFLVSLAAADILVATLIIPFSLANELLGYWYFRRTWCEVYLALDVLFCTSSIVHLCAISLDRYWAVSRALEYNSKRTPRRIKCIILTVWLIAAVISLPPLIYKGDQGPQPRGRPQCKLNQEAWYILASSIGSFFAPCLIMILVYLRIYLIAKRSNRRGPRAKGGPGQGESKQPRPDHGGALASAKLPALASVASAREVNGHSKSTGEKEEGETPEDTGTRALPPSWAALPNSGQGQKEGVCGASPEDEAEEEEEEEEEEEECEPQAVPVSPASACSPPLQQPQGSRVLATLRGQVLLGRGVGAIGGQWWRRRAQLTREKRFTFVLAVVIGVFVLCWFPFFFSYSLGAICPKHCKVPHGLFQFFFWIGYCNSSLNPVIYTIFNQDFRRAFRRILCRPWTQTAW
Description: PDSP Primary Binding target: ADRA2B - Compounds are tested at 10 uM concentration, plate are incubated at room temperature in the dark for 90 minutes. Reaction are stopped by vacuum filtration onto 0.3% polyethyleneimine soaked filter mats using Filtermate harvester. Scintilation cocktail is then melted onto microwave-dried filters on a hot plate and the radio activity is counted in Microbia counter.

Assay [5] addresses Muscarinic acetylcholine receptor M3 (Homo sapiens) (UniProt P20309).
Description: PDSP Primary Binding target: CHRM3 - Compounds are tested at 10 uM concentration, plate are incubated at room temperature in the dark for 90 minutes. Reaction are stopped by vacuum filtration onto 0.3% polyethyleneimine soaked filter mats using Filtermate harvester. Scintilation cocktail is then melted onto microwave-dried filters on a hot plate and the radio activity is counted in Microbia counter.
The target in assay [6] is T4, Alpha-2C adrenergic receptor (Homo sapiens) (UniProt P18825).
T4 sequence (whole entry): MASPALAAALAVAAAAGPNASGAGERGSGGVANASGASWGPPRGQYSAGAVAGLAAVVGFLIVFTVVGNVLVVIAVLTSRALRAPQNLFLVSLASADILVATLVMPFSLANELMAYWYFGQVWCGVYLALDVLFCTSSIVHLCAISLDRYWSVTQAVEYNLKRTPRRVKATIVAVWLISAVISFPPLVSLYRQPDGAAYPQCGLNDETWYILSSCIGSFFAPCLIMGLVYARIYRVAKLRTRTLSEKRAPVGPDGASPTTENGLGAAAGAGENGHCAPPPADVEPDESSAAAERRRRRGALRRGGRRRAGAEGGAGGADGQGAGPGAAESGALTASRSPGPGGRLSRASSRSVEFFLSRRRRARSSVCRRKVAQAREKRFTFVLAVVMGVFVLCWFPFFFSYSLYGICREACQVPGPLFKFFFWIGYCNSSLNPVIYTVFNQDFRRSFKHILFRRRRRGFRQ
Description: PDSP Primary Binding target: ADRA2C - Compounds are tested at 10 uM concentration, plate are incubated at room temperature in the dark for 90 minutes. Reaction are stopped by vacuum filtration onto 0.3% polyethyleneimine soaked filter mats using Filtermate harvester. Scintilation cocktail is then melted onto microwave-dried filters on a hot plate and the radio activity is counted in Microbia counter.

Assay [7] addresses Beta-1 adrenergic receptor (Homo sapiens) (UniProt P08588).
Description: PDSP Primary Binding target: ADRB1 - Compounds are tested at 10 uM concentration, plate are incubated at room temperature in the dark for 90 minutes. Reaction are stopped by vacuum filtration onto 0.3% polyethyleneimine soaked filter mats using Filtermate harvester. Scintilation cocktail is then melted onto microwave-dried filters on a hot plate and the radio activity is counted in Microbia counter.
The target of assay [8] is T5, Muscarinic acetylcholine receptor M4 (Homo sapiens) (UniProt P08173).
T5 sequence (whole entry): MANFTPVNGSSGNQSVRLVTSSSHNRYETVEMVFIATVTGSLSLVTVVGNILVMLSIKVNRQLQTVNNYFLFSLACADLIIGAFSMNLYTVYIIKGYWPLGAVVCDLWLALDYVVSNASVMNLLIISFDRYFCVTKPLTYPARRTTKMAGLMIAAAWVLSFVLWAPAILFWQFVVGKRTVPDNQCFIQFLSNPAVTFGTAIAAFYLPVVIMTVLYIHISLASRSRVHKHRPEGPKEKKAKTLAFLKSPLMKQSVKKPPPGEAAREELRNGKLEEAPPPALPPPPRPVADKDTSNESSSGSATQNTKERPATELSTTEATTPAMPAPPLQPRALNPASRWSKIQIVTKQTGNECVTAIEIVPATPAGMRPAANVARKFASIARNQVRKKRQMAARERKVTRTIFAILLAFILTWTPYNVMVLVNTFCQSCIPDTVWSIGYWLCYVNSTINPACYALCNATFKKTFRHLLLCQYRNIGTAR
Description: PDSP Primary Binding target: CHRM4 - Compounds are tested at 10 uM concentration, plate are incubated at room temperature in the dark for 90 minutes. Reaction are stopped by vacuum filtration onto 0.3% polyethyleneimine soaked filter mats using Filtermate harvester. Scintilation cocktail is then melted onto microwave-dried filters on a hot plate and the radio activity is counted in Microbia counter.

Assay [9] has as its target Histamine H2 receptor (Homo sapiens) (UniProt P25021).
Description: PDSP Primary Binding target: HRH2 - Compounds are tested at 10 uM concentration, plate are incubated at room temperature in the dark for 90 minutes. Reaction are stopped by vacuum filtration onto 0.3% polyethyleneimine soaked filter mats using Filtermate harvester. Scintilation cocktail is then melted onto microwave-dried filters on a hot plate and the radio activity is counted in Microbia counter.
The target of assay [10] is Histamine H1 receptor (Homo sapiens) (UniProt P35367).
Description: PDSP Primary Binding target: HRH1 - Compounds are tested at 10 uM concentration, plate are incubated at room temperature in the dark for 90 minutes. Reaction are stopped by vacuum filtration onto 0.3% polyethyleneimine soaked filter mats using Filtermate harvester. Scintilation cocktail is then melted onto microwave-dried filters on a hot plate and the radio activity is counted in Microbia counter.
In assay [11] the target is 5-hydroxytryptamine receptor 5A (Homo sapiens) (UniProt P47898).
Description: PDSP Primary Binding target: HTR5A - Compounds are tested at 10 uM concentration, plate are incubated at room temperature in the dark for 90 minutes. Reaction are stopped by vacuum filtration onto 0.3% polyethyleneimine soaked filter mats using Filtermate harvester. Scintilation cocktail is then melted onto microwave-dried filters on a hot plate and the radio activity is counted in Microbia counter.
Assay [12] concerns the target Delta-type opioid receptor (Homo sapiens) (UniProt P41143).
Description: PDSP Primary Binding target: OPRD1 - Compounds are tested at 10 uM concentration, plate are incubated at room temperature in the dark for 90 minutes. Reaction are stopped by vacuum filtration onto 0.3% polyethyleneimine soaked filter mats using Filtermate harvester. Scintilation cocktail is then melted onto microwave-dried filters on a hot plate and the radio activity is counted in Microbia counter.
In assay [13] the target is Kappa-type opioid receptor (Homo sapiens) (UniProt P41145).
Description: PDSP Primary Binding target: OPRK1 - Compounds are tested at 10 uM concentration, plate are incubated at room temperature in the dark for 90 minutes. Reaction are stopped by vacuum filtration onto 0.3% polyethyleneimine soaked filter mats using Filtermate harvester. Scintilation cocktail is then melted onto microwave-dried filters on a hot plate and the radio activity is counted in Microbia counter.
The target of assay [14] is Sodium-dependent noradrenaline transporter (Homo sapiens) (UniProt P23975).
Description: PDSP Primary Binding target: SLC6A2 - Compounds are tested at 10 uM concentration, plate are incubated at room temperature in the dark for 90 minutes. Reaction are stopped by vacuum filtration onto 0.3% polyethyleneimine soaked filter mats using Filtermate harvester. Scintilation cocktail is then melted onto microwave-dried filters on a hot plate and the radio activity is counted in Microbia counter.
The target in assay [15] is 5-hydroxytryptamine receptor 1D (Homo sapiens) (UniProt P28221).
5-hydroxytryptamine receptor 1D (Homo sapiens), sequence (P28221 whole entry): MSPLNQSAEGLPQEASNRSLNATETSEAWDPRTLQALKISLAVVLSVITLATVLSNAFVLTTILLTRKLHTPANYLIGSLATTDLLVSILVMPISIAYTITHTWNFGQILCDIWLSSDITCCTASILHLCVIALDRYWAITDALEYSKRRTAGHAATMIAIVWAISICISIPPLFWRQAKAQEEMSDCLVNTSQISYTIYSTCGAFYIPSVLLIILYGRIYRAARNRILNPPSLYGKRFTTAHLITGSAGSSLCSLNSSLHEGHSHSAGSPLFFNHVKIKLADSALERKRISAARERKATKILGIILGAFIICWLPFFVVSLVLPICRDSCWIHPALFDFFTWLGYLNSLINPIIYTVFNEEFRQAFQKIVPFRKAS
Description: PDSP Primary Binding target: HTR1D - Compounds are tested at 10 uM concentration, plate are incubated at room temperature in the dark for 90 minutes. Reaction are stopped by vacuum filtration onto 0.3% polyethyleneimine soaked filter mats using Filtermate harvester. Scintilation cocktail is then melted onto microwave-dried filters on a hot plate and the radio activity is counted in Microbia counter.

Delta-type opioid receptor (Homo sapiens), sequence (P41143 whole entry): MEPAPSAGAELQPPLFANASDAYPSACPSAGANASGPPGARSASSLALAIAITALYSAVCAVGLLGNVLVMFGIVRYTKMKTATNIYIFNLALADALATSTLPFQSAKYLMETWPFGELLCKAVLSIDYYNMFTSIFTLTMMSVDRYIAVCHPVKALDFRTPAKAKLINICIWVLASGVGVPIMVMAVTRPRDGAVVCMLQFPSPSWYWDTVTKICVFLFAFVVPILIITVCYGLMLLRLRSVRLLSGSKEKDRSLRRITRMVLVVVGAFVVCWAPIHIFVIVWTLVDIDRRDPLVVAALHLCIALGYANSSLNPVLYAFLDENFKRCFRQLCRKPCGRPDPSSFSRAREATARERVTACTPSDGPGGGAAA
Beta-1 adrenergic receptor (Homo sapiens), sequence (P08588 whole entry, looked up): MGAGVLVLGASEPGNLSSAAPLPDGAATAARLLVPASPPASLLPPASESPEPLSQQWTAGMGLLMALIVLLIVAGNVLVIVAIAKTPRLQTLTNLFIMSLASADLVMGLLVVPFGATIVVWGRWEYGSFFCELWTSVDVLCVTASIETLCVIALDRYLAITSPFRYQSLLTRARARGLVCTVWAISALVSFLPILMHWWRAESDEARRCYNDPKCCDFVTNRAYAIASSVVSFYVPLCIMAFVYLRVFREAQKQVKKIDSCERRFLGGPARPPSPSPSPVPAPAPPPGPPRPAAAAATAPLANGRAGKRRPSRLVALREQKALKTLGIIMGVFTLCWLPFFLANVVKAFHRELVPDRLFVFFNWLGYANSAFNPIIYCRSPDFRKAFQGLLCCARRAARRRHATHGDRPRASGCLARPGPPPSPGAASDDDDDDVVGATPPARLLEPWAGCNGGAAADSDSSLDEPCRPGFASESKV
Kappa-type opioid receptor (Homo sapiens), sequence (P41145 whole entry): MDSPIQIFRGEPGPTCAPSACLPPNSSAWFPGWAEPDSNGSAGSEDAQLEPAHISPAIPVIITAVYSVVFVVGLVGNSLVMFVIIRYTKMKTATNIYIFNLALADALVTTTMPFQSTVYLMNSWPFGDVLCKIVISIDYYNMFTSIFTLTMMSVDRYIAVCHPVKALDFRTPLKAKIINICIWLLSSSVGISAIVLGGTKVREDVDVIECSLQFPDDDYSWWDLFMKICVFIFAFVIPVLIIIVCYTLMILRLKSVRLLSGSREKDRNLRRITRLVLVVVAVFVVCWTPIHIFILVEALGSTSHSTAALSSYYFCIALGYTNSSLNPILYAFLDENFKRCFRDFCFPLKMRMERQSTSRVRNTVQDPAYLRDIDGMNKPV
Sodium-dependent noradrenaline transporter (Homo sapiens), sequence (P23975 whole entry): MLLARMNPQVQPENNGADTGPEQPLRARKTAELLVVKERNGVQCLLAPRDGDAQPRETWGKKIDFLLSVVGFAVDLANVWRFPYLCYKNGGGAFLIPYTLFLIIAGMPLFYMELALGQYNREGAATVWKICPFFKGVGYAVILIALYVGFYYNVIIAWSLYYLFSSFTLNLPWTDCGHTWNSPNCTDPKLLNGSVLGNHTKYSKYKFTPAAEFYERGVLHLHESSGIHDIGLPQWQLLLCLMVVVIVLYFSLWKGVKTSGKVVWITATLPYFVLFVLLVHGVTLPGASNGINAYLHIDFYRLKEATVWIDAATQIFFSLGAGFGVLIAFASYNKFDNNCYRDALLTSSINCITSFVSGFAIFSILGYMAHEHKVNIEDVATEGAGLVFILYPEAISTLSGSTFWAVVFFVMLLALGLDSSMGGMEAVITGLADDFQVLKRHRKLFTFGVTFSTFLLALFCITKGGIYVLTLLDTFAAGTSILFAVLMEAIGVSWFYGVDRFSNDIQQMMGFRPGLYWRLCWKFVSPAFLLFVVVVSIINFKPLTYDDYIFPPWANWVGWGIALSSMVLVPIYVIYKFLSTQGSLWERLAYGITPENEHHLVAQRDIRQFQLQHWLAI
Muscarinic acetylcholine receptor M3 (Homo sapiens), sequence (P20309 whole entry, looked up): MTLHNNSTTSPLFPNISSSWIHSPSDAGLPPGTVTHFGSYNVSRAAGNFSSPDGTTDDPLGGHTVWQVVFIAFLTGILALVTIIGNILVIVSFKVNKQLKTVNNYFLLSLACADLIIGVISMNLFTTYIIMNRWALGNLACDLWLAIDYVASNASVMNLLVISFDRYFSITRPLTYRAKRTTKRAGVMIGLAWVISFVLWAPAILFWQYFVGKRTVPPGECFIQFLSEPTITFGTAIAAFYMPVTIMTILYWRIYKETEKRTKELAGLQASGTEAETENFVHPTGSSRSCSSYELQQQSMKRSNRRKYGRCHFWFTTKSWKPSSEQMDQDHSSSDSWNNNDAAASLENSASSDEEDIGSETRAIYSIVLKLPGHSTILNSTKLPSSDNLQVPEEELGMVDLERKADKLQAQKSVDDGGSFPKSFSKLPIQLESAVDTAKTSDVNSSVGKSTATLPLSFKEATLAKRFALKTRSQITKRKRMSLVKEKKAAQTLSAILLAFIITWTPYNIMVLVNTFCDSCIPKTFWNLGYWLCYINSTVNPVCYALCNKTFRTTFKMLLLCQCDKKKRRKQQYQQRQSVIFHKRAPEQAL
Histamine H1 receptor (Homo sapiens), sequence (P35367 whole entry): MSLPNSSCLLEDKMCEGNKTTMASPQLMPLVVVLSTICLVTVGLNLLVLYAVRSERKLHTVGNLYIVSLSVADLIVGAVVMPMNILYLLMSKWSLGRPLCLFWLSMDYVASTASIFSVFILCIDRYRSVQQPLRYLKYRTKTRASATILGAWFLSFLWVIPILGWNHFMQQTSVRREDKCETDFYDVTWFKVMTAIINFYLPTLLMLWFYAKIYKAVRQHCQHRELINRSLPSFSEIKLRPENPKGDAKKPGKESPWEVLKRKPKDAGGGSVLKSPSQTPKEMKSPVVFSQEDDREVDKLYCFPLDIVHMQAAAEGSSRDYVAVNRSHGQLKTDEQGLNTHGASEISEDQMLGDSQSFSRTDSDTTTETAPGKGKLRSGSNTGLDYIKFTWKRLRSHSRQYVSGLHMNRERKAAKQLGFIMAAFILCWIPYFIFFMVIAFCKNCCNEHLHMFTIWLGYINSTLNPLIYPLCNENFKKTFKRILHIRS
Histamine H2 receptor (Homo sapiens), sequence (P25021 whole entry): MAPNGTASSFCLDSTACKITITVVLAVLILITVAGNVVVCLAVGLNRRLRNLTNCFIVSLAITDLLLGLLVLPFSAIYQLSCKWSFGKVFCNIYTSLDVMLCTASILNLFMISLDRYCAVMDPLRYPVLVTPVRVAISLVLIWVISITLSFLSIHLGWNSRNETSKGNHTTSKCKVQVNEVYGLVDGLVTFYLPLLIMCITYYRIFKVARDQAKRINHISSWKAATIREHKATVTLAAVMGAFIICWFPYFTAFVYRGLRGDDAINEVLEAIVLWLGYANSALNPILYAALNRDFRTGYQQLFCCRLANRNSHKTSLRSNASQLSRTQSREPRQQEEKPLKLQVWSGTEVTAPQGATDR
D(3) dopamine receptor (Homo sapiens), sequence (P35462 whole entry): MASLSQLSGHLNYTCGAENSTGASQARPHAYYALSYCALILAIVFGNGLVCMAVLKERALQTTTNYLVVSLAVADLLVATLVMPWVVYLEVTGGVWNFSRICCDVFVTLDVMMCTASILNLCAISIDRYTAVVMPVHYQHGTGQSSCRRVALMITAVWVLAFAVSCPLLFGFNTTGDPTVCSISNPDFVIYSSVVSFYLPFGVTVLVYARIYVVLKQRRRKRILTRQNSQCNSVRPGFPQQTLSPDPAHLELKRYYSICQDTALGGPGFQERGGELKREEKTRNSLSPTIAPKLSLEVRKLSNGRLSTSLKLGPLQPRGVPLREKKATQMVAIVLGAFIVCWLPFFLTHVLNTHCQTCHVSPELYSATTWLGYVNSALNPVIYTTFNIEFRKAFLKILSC
5-hydroxytryptamine receptor 5A (Homo sapiens), sequence (P47898 whole entry): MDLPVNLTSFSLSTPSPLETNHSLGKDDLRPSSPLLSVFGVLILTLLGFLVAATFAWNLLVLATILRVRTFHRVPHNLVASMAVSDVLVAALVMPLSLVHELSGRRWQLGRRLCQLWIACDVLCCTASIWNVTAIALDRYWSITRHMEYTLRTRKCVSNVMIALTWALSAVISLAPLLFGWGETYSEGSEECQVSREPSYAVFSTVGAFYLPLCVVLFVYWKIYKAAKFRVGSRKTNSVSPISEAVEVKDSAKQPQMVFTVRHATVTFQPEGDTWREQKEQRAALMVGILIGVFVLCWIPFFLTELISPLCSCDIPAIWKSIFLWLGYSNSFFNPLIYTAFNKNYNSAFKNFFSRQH

As to `Cc1c(C2=CCN(C(=O)N(C)C(C)C)CC2)nnn1-c1cccnc1F`, the inhibition in [1] was 26.9%; in assay [2], -1.95%; in assay [3] it was 17%; in assay [4], 21.3%; in assay [5] it was 1.95%; in assay [6], 9.65%. Moreover, the inhibition was -5.97% in assay [7]; -9.61% in assay [8]; 29.8% in assay [9]; 60.9% in assay [10]; 7.43% in [11].
For `Cc1nnn(-c2ccc(-c3ccc(C4(C(=O)O)CC4)cc3)cc2)c1NC(=O)O[C@H](C)c1ccccc1`, the inhibition in assay [12] was 7.05%; in [2], 34.8%; in [3], 2.96%; in assay [13], -4.59%; in [4] it was 4.78%; in [5], -2.63%. Moreover, the inhibition in assay [14] was 2.8%; in assay [6], 2.71%; in assay [7], -7.78%; in assay [9] it was 4.74%; in [15], 16.8%; in assay [10] it was 52.8%. Besides, the inhibition in assay [11] was 15.6%.
In the case of `COc1ccnc(N2CCC3(CCCN(Cc4c[nH]c5ccccc45)C3=O)CC2)n1`, the inhibition is 41.8% in assay [12]; 28.5% in [2]; 72.4% in [3]; 6.61% in [13]; -7.28% in assay [4]; 16.6% in assay [14]. Besides, the inhibition in assay [6] is 4.51%; in [8] it was -7.79%; in [9] it was -7.83%; in assay [15] it was 13.2%; in assay [10] it was 23.1%; in assay [11], -9.26%.
Consider `Cc1csc(NC(=O)c2cc(F)cc(Oc3cncnc3)c2)n1`, for which the inhibition is 23.6% in assay [1]; -0.43% in assay [12]; 72% in assay [2]; 20.4% in assay [3]; 18.9% in assay [13]; 6.73% in assay [4]. For the same compound, the inhibition in [5] is -2.7%; in [14], 10.9%; in assay [6], 6.42%; in [7], -2.16%; in assay [8], -5.33%; in [9] it was 28.4%. Moreover, the inhibition in assay [15] was 5.84%; in [10], -6.12%; in assay [11], -6.54%.
In the case of `COC1CCN(c2cccc(-c3cc(NC(C)=O)nc(-n4nc(C)cc4C)n3)n2)CC1`, the inhibition is -2.89% in assay [1]; -6% in assay [12]; 23.3% in assay [3]; -0.88% in assay [4]; 26.3% in [6]; 41.4% in [7]. Further, the inhibition in assay [9] is 26%; in assay [10], 14.4%; in [11] it was -1.72%.

(Values after ChEMBL document CHEMBL5442219.)
